Experimental data as given in patent US20240018146A1, “COMPOSITIONS AND METHODS OF USING THE SAME FOR TREATMENT OF NEURODEGENERATIVE AND MITOCHONDRIAL DISEASE” (MITOKININ, INC., priority 2020, published 2024).
Where two headings read alike, the source gives them in different places.

What was measured:
[1] = system: HeLa MKYP cells; assay: Cell death measured by DAPI staining, with 1 μM FCCP/oligomycin or no toxin (no FO); format: cell-based
Description: EP-0035985, EP-0037821, EP-0038098, and EP-0038099 in the presence of 1 μM FCCP/oligomycin or with no toxin (no FO) for 6 hrs. H2O2 treatment was performed as a control for cell death as measured by DAPI staining.
EP-0035985, EP-0038461, EP-0038463, and EP-0038503 in the presence of 1 μM FCCP/oligomycin or with no toxin (no FO) for 6.5 hrs. H2O2 treatment was performed as a control for cell death as measured by DAPI staining.
EP-0035985, EP-0038504, EP-0038508, and EP-0038521 in the presence of 1 μM FCCP/oligomycin or with no toxin (no FO) for 6.5 hrs. H2O2 treatment was performed as a control for cell death as measured by DAPI staining.
EP-0035985, EP-0038461, EP-0038463, EP-0038503, EP-0038504, EP-0038508, and EP-0038521 in the presence of 1 μM FCCP/oligomycin or with no toxin (no FO) for 6.5 hrs. H2O2 treatment was performed as a control for cell death as measured by DAPI staining.

[2] = system: HeLa MKYP cells; assay: Human mitophagy assay (HeLa mKeima assay, FACS); format: cell-based; settings: read-out: Mitophagy induction EC50
Description: Briefly, HeLa MKYP cells were plated at 10,000 cells/well in 96 well plates along with compounds at various concentrations. Following 16 hrs of incubation, cells were treated with 1 uM FCCP/oligomycin for 6 hours, then analyzed via FACS for the presence of mitochondria in lysosomes (as determined by an emissions spectrum shift from the pH-sensitive mtKeima tag).
Briefly, HeLa cells expressing a mitophagy indicator (mtKeima) protein were treated with […] of FCCP and Oligomycin followed by the specified dose of compound, then analyzed by FACS to quantify the percentage of cells undergoing mitophagy.

SMILES | Highest safe dose (cytotoxicity; no FO; safe means DAPI+ <20%) [1] [µM] | Max % death with 1 μM FO [1] [%] | EC50 ([2]; Homo sapiens, HeLa) [µM] | EC50 [2] [µM]
OC[C@H]1CCN(C2CCc3ccccc3C2Nc2ncnc3[nH]c(C(F)(F)F)cc23)C1 (mixture of isomers) [EP-0040121] | 25.0 | 33.6 | 1.29 | 
Cc1ccc2c(c1)OC[C@H](N1CCOCC1)[C@H]2Nc1ncnc2[nH]c(C(F)(F)F)cc12 (racemic) [EP-0041045] | 25.0 | 7.7 | 1.56 | 
[2H]C([2H])([2H])OC1CN([C@@H]2COc3ccccc3[C@H]2Nc2ncnc3[nH]c(C(F)(F)F)cc23)C1 (racemic) [EP-0041327] | 25.0 | 4.1 | > 25 | 
FC(F)OC1CN([C@H]2COc3ccccc3[C@@H]2Nc2ncnc3[nH]c(C(F)(F)F)cc23)C1 (racemic) [EP-0041354] | 25.0 | 12.4 |  | 1.08
FC(F)OC1CN([C@H]2COc3ccccc3[C@@H]2Nc2ncnc3[nH]c(C(F)(F)F)cc23)C1 (racemic) [EP-0041542] | 25.0 | 3.8 |  | > 25
FC1(F)CN(C2COc3ccccc3C2Nc2ncnc3[nH]c(C4CC4)cc23)C1 (racemic) [EP-0041566] | 25.0 | 30.0 | 1 | 
CC(=O)N1CCN(C2COc3ccccc3C2Nc2ncnc3[nH]c(C4CC4)cc23)CC1 (racemic) [EP-0041596] | 25.0 | 15.3 | 2.72 | 
CN1CCN(C2COc3ccccc3C2Nc2ncnc3[nH]c(C4CC4)cc23)CC1=O (racemic) [EP-0041600] | 25.0 | 4.9 | > 25 | 
FC(F)(F)c1cc2c(N[C@H]3c4ccccc4CC[C@@H]3OCC3CCOCC3)ncnc2[nH]1 (single isomer, unassigned) [EP-0038523] | 25.0 | 3.3 | 4.45 | 
OC[C@@H]1CCCN1[C@H]1CCc2ccccc2[C@@H]1Nc1ncnc2[nH]c(C(F)(F)F)cc12 (single isomer, unassigned) [EP-0039732] | 25.0 | 6.2 | > 25 | 
FC(F)(F)c1cc2c(N[C@H]3c4ccccc4CC[C@H]3OC3CCOCC3)ncnc2[nH]1 (single isomer, unassigned) [EP-0039733] | 25.0 | 3.1 | 9.33 | 
c1ccc2c(c1)OC[C@@H](N1CCOCC1)[C@@H]2Nc1ncnc2[nH]c(C3CC3)cc12 (single isomer, unassigned) [EP-0040181] | 25.0 | 5.9 | > 25 | 
C[C@H]1COCCN1[C@@H]1CCc2ccccc2[C@H]1Nc1ncnc2[nH]c(C(F)(F)F)cc12 (single isomer, unassigned) [EP-0040182] | 25.0 | 26.8 |  | 21.2
C[C@H]1COCCN1[C@@H]1CCc2ccccc2[C@H]1Nc1ncnc2[nH]c(C(F)(F)F)cc12 (single isomer, unassigned) [EP-0040193] | 25.0 | 29.7 |  | 9.46
C[C@@H]1COCCN1[C@@H]1CCc2ccccc2[C@H]1Nc1ncnc2[nH]c(C(F)(F)F)cc12 (single isomer, unassigned) [EP-0040195] | 25.0 | 12.0 | 18.5 | 
C[C@@H]1COCCN1[C@@H]1CCc2ccccc2[C@H]1Nc1ncnc2[nH]c(C(F)(F)F)cc12 (single isomer, unassigned) [EP-0040197] | 25.0 | 8.4 |  | 22.7
c1ccc2c(c1)CC[C@H](N1C[C@H]3COC[C@H]3C1)[C@H]2Nc1ncnc2[nH]c(C3CC3)cc12 (single isomer, unassigned) [EP-0040248] | 25.0 | 3.7 | > 25 | 

SMILES | Highest safe dose (cytotoxicity; no FO; safe means DAPI+ <20%) [1] [µM] | Max % death with 1 μM FO [1] [%] | EC50 ([2]; Homo sapiens, HeLa) [µM] | EC50 [2] [µM]
c1ccc2c(c1)CC[C@@H](N1C[C@H]3COC[C@H]3C1)[C@@H]2Nc1ncnc2[nH]c(C3CC3)cc12 (single isomer, unassigned) [EP-0040249] | 25.0 | 12.3 | 0.09 | 
FC(F)(F)c1cc2c(N[C@H]3c4ccccc4OC[C@@H]3N3CCOCC3)ncnc2[nH]1 (single isomer, unassigned) [EP-0040251] | 25.0 | 3.1 | > 25 | 
Fc1ccc2c(c1)OC[C@H](N1C[C@H]3COC[C@H]3C1)[C@H]2Nc1ncnc2[nH]c(C(F)(F)F)cc12 (single isomer, unassigned) [EP-0040268] | 25.0 | 3.2 | > 25 | 
Fc1ccc2c(c1)OC[C@H](N1C[C@H]3COC[C@H]3C1)[C@H]2Nc1ncnc2[nH]c(C3CC3)cc12 (single isomer, unassigned) [EP-0040326] | 25.0 | 3.6 |  | > 25
C[C@@H]1COCCN1[C@H]1CCc2ccccc2[C@@H]1Nc1ncnc2[nH]c(C3CC3)cc12 (single isomer, unassigned) [EP-0040339] | 25.0 | 16.5 | > 25 | 
C[C@@H]1COCCN1[C@H]1CCc2ccccc2[C@@H]1Nc1ncnc2[nH]c(C3CC3)cc12 (single isomer, unassigned) [EP-0040358] | 2.8 | 97.8 |  | > 25
c1ccc2c(c1)OC[C@H](N1C[C@H]3COC[C@H]3C1)[C@H]2Nc1ncnc2[nH]c(C3CC3)cc12 (single isomer, unassigned) [EP-0040391] | 25.0 | 3.9 | > 25 | 
C[C@@H]1CN([C@@H]2CCc3ccccc3[C@H]2Nc2ncnc3[nH]c(C(F)(F)F)cc23)CCO1 (single isomer, unassigned) [EP-0040492] | 25.0 | 1.8 | > 25 | 
C[C@@H]1CN([C@@H]2CCc3ccccc3[C@H]2Nc2ncnc3[nH]c(C(F)(F)F)cc23)C[C@H](C)O1 (single isomer, unassigned) [EP-0040494] | 25.0 | 4.1 | > 25 | 
C[C@@H]1CN([C@@H]2CCc3ccccc3[C@H]2Nc2ncnc3[nH]c(C4CC4)cc23)CCO1 (single isomer, unassigned) [EP-0040497] | 25.0 | 4.3 | 6.97 | 
C[C@@H]1CN([C@@H]2CCc3ccccc3[C@H]2Nc2ncnc3[nH]c(C4CC4)cc23)C[C@H](C)O1 (single isomer, unassigned) [EP-0040499] | 25.0 | 4.3 | 5.2 | 
Fc1ccc2c(c1)OC[C@@H](N1CCOCC1)[C@@H]2Nc1ncnc2[nH]c(C3CC3)cc12 (single isomer, unassigned) [EP-0040501] | 25.0 | 5.0 | 14.3 | 
C[C@H]1CN([C@@H]2CCc3ccccc3[C@H]2Nc2ncnc3[nH]c(C(F)(F)F)cc23)CCO1 (single isomer, unassigned) [EP-0040504] | 25.0 | 2.0 | 9.33 | 
Fc1cccc2c1CC[C@H](N1C[C@H]3COC[C@H]3C1)[C@H]2Nc1ncnc2[nH]c(C(F)(F)F)cc12 (single isomer, unassigned) [EP-0040505] | 25.0 | 14.3 | 13.5 | 
C[C@H]1CN([C@@H]2CCc3ccccc3[C@H]2Nc2ncnc3[nH]c(C4CC4)cc23)CCO1 (single isomer, unassigned) [EP-0040512] | 25.0 | 26.7 | 12.1 | 
Fc1ccc2c(c1)OC[C@H](N1C[C@@H]3COC[C@H]3C1)[C@H]2Nc1ncnc2[nH]c(C(F)(F)F)cc12 (single isomer, unassigned) [EP-0040562] | 25.0 | 7.9 | 1.5 | 
